Data reported in paper PMC9598407, “Identification of Staphylococcus aureus Penicillin Binding Protein 4 (PBP4) Inhibitors” (Antibiotics, 2022).
≈ marks a conversion by molar mass, not a printed value.

Tests used:
S. aureus USA300∆pbp4 = assay: MIC testing, strain USA300∆pbp4; type: cell-based, Staphylococcus aureus; settings: for MIC: Staphylococcus aureus, USA300, read-out: Minimum inhibitory concentration
Description: (§1) The approach used was to initially search for compounds that reverse the antibiotic resistance profile of wild type cells to that of a pbp4 mutant. To define screening conditions three strains were employed, a wild type USA300 MRSA strain, an isogenic pbp4 deletion strain, and a complemented strain harboring a plasmid wildtype pbp4 copy. The antibiotic susceptibility profile of each strain was measured to determine the magnitude with which PBP4 affects resistance to various antibiotics (Table 1). […]. We anticipated that the greater dynamic range of the latter could provide a means to reliably screen for agents that inhibit PBP4 function. […].
(§2) S. aureus strain USA300 is a predominant cause of U.S. community-associated MRSA infections, whereas strain COL is a commonly studied hospital-associated MRSA strain. The S. aureus USA300 pbp4-null strain (USA300Δpbp4) and PBP4 complementation strain (USA300∆pbp4 pPBP4) have been previously described. Strain COLn is a laboratory derived tetracycline susceptible derivative of COL, whereas COLnex is a methicillin susceptible COLn derivative that has been cured of SCCmec thereby removing the mecA, which encodes PBP2a, and has been previously described. Strain CRB is a well-studied MRSA COLnex derivative that contains two amino acid substitutions (E183A and F241R) near the PBP4 active site and a 36-bp duplication 290-bp upstream of the pbp4 open reading frame leading to 20–40-fold overexpression of the gene. All strains were grown in Mueller Hinton (MH) broth at 37 °C, as indicated. Penicillin, streptomycin, ciprofloxacin, mupirocin, meropenem, and mitomycin C were purchased from Fisher Scientific (Waltham, MA, USA), whereas ceftobiprole was obtained from MedChemExpress LLC (Monmouth Junction, NJ, USA). The 30,000-member […]-EXP small molecule chemical library (Blocks 3–5) used in these studies was purchased from ChemBridge Corporation (San Diego, CA, USA).

S. aureus COLnex = assay: MIC testing, strain COLnex; type: cell-based; settings: Staphylococcus aureus, read-out: Minimum inhibitory concentration
Description: (§3) To further evaluate their potential PBP4 inhibitor activity, prioritized compounds were tested for their ability to reverse PBP4 mediated antibiotic resistance in another S. aureus background using three isogenic strains that became available during our study (generous gift from Dr. S. Chatterjee; University of Maryland). These strains included: (1) COLnex, which is a methicillin susceptible strain, (2) CRB, a methicillin/ceftobiprole-resistant strain of COLnex that overproduces PBP4, and (3) CRB∆pbp4, a methicillin susceptible strain of CRB lacking the pbp4 gene.
as §2

S. aureus USA300 = assay: Minimum inhibitory concentration (MIC) testing, strain USA300; type: cell-based, Staphylococcus aureus; settings: for MIC: Staphylococcus aureus, USA300, read-out: Minimum inhibitory concentration; for Fold increase in resistance provided by PBP4: USA300 versus USA300∆pbp4 MIC; for Minimum inhibitory concentration: strain USA300
Description: as §1, §2

S. aureus CRB∆pbp4 = assay: MIC testing, strain CRB∆pbp4; type: cell-based; settings: Staphylococcus aureus, read-out: Minimum inhibitory concentration
Description: as §3, §2

S. aureus CRB = assay: MIC testing, strain CRB (PBP4 overproducer); type: cell-based, Staphylococcus aureus; settings: for MIC: Staphylococcus aureus, read-out: Minimum inhibitory concentration, strain CRB
Description: as §3, §2

[1] = system: S. aureus USA300∆pbp4 pPBP4; assay: microbe, parasite or virus in culture; type: cell-based; settings: Staphylococcus aureus, USA300, read-out: Minimum inhibitory concentration
[2] = biological target: recombinant Bacillus subtilis PBP4 (Bacillus subtilis, UniProt P40750); assay: BOCILLIN FL fluorescence polarization displacement assay, PBP4; type: binding; settings: for Effect of preincubation on BOCILLIN FL binding to PBP4 (fluorescence polarization): 50 µM, 1 µM PBP4
recombinant Bacillus subtilis PBP4, sequence (P40750 22-624): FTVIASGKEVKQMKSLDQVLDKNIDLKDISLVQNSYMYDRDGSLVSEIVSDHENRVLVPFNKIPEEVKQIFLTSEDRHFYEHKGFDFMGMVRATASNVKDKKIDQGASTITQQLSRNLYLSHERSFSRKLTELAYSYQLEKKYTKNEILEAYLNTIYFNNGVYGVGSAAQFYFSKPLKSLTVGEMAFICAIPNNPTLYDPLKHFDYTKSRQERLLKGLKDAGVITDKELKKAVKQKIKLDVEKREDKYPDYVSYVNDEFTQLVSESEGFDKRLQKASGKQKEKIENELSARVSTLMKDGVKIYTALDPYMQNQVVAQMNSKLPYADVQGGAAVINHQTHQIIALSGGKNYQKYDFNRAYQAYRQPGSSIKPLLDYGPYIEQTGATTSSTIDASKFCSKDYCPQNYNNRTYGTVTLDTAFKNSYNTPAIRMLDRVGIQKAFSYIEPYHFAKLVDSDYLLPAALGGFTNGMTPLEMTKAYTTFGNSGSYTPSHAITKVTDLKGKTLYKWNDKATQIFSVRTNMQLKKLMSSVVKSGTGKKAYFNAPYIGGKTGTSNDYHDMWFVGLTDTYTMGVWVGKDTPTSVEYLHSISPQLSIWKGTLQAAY
Description: To more directly evaluate whether 9314848 is likely to affect PBP4 function, the compound’s ability to bind recombinant PBP4 was measured using BOCILLIN FL fluorescence polarization displacement assays. The premise for the assay is that the fluorescence polarization of the fluorescently labeled β-lactam, penicillin V (BOCILLIN FL), will increase upon binding to its cognate target (i.e., PBP4). Further, compounds that bind PBP4 and inhibit its function would impede BOCILLIN FL binding thereby allowing us to assess the protein binding affinity of 9314848 using a simple fluorescence reduction assay.
To determine whether the assay is amenable to measuring the binding properties of a compound that is known to bind PBP4 vs. a compound that is not expected to bind the protein we performed fluorescence polarization assays in which PBP4 was preincubated with either the β-lactam ampicillin, or the aminoglycoside kanamycin.
A dose response study was conducted (Figure 4B) in which PBP4 was preincubated with 0, 3.125, 6.25, 12.5, 25, or 50 µM of ampicillin, kanamycin, or 9314848.
First, fluorescence polarization assays were performed as previously described, but with minor modifications. Briefly, the indicated amount of the putative PBP4 inhibitor or control antibiotic was incubated with 1 µM recombinant B. subtilis PBP4 or S. aureus PBP2a in potassium phosphate buffer (40 mM K2HPO4 and 10 mM KH2PO4) for 1 h in black 96-well microtiter plates (Corning Life Sciences, Corning, NY, USA). Following incubation, 1 µM (final concentration) BOCILLIN FL penicillin was added, and the mixture was incubated for 30 min. BOCILLIN FL fluorescence polarization was measured at (495 nm excitation and 545 nm emission) in a SpectraMax M5 multimode plate reader (Molecular Devices, San Jose, CA, USA). […] The resulting data were plotted as percentage BOCILLIN FL binding inhibition = (T/U) × 100; T = FL polarization of ((PBP4+ BOCILLIN FL) − (PBP4+ BOCILLIN FL + inhibitor compound)), U = FL polarization of ((PBP4 + BOCILLIN FL) − (BOCILLIN FL)). Second, gel electrophoresis and fluorescence detection was used to measure BOCILLIN FL labeling of PBP4 treated with the known PBP4 inhibitor cefoxitin (positive control), kanamycin (negative control) or 9314848 (test compound), as previously described but with minor modifications. Briefly, 1 µM of recombinant PBP4 was mixed with 0, 50, 500, 2000, or 5000 µM 9314848 or control antibiotic in 50 mM phosphate buffer (pH 7.4) and incubated at 37 °C for 30 min. Next 40 μM of BOCILLIN FL was added to the reaction mixture and incubated for an additional 30 min at 37 °C. Reactions were stopped by adding 5× SDS-PAGE gel loading dye, heated at 100 °C for 3 min and separated by electrophoresis in 12% SDS-PAGE (2 h, 120 Volts). BOCILLIN FL labeled PBP4 was imaged at λ = 365 nm using a BioRad Gel Doc EZ Imaging system and the gel was then subsequently stained with Bio-safe Coomassie Brilliant Blue stain (BioRad, Hercules, CA, USA) to measure the amount of protein present in each reaction condition and analyzed using NIH-ImageJ software. The percent BOCILLIN FL binding was calculated by first normalizing the protein present in each reaction condition to that of untreated control and subsequently applying each reaction’s protein normalization factor to each reaction’s fluorescent signal. The percentage BOCILLIN FL binding inhibition was then calculated as the normalized band intensity of antibiotic/compound treated sample as compared to the control sample (PBP4 + BOCILLIN FL in the absence of compound).

recombinant PBP4 = recombinant PBP4 (Bacillus subtilis, UniProt P40750); assay: Gel electrophoresis BOCILLIN FL labeling of PBP4; type: binding; settings: for Effect of preincubation on PBP4 BOCILLIN FL labeling (gel-based): 50-5000 µM, kanamycin 2000 µM or 5000 µM; for PBP4 BOCILLIN FL binding inhibition (gel-based) at low concentration: concentrations below 50 µM
recombinant PBP4, sequence (P40750 22-624): as above
Description: A second, yet lower resolution, approach was used to verify the impact of 9314848 on PBP4 substrate binding in which the protein was preincubated with compound or control antibiotics then labeled with the BOCILLIN FL and resulting fluorescent labeled protein was visualized following gel electrophoresis.
The ability of putative PBP4 inhibitors to impact the active site of recombinant PBP4 was assessed using two previously established BOCILLIN-FL Penicillin (Penicillin V conjugated to BODIPY fluorescent dye) binding assays. First, fluorescence polarization assays were performed as previously described, but with minor modifications. Briefly, the indicated amount of the putative PBP4 inhibitor or control antibiotic was incubated with 1 µM recombinant B. subtilis PBP4 or S. aureus PBP2a in potassium phosphate buffer (40 mM K2HPO4 and 10 mM KH2PO4) for 1 h in black 96-well microtiter plates (Corning Life Sciences, Corning, NY, USA). Following incubation, 1 µM (final concentration) BOCILLIN FL penicillin was added, and the mixture was incubated for 30 min. BOCILLIN FL fluorescence polarization was measured at (495 nm excitation and 545 nm emission) in a SpectraMax M5 multimode plate reader (Molecular Devices, San Jose, CA, USA). All assays were repeated at least 8 times, averaged, and values falling outside of 2 standard deviations were considered outliers. The resulting data were plotted as percentage BOCILLIN FL binding inhibition = (T/U) × 100; T = FL polarization of ((PBP4+ BOCILLIN FL) − (PBP4+ BOCILLIN FL + inhibitor compound)), U = FL polarization of ((PBP4 + BOCILLIN FL) − (BOCILLIN FL)). Second, gel electrophoresis and fluorescence detection was used to measure BOCILLIN FL labeling of PBP4 treated with the known PBP4 inhibitor cefoxitin (positive control), kanamycin (negative control) or 9314848 (test compound), as previously described but with minor modifications. Briefly, 1 µM of recombinant PBP4 was mixed with 0, 50, 500, 2000, or 5000 µM 9314848 or control antibiotic in 50 mM phosphate buffer (pH 7.4) and incubated at 37 °C for 30 min. Next 40 μM of BOCILLIN FL was added to the reaction mixture and incubated for an additional 30 min at 37 °C. Reactions were stopped by adding 5× SDS-PAGE gel loading dye, heated at 100 °C for 3 min and separated by electrophoresis in 12% SDS-PAGE (2 h, 120 Volts). BOCILLIN FL labeled PBP4 was imaged at λ = 365 nm using a BioRad Gel Doc EZ Imaging system and the gel was then subsequently stained with Bio-safe Coomassie Brilliant Blue stain (BioRad, Hercules, CA, USA) to measure the amount of protein present in each reaction condition and analyzed using NIH-ImageJ software. The percent BOCILLIN FL binding was calculated by first normalizing the protein present in each reaction condition to that of untreated control and subsequently applying each reaction’s protein normalization factor to each reaction’s fluorescent signal. The percentage BOCILLIN FL binding inhibition was then calculated as the normalized band intensity of antibiotic/compound treated sample as compared to the control sample (PBP4 + BOCILLIN FL in the absence of compound).

Compound	MIC (S. aureus USA300∆pbp4) [µg/mL]	MIC (S. aureus COLnex) [µg/mL]	MIC (S. aureus USA300) [µg/mL]	Minimum inhibitory concentration (S. aureus USA300) [µg/mL]	MIC (S. aureus CRB∆pbp4) [µg/mL]	MIC (S. aureus CRB) [µg/mL]	MIC [1] [µg/mL]	Effect of preincubation on PBP4 BOCILLIN FL labeling (gel-based) (recombinant PBP4)	further results
O=C(O)c1cn(C2CC2)c2cc(N3CCNCC3)c(F)cc2c1=O [CIP, ciprofloxacin]	1 (≈ 3.02 µM)	0.25 (≈ 0.754 µM)	4 (≈ 12.1 µM)	4 (≈ 12.1 µM)	0.25 (≈ 0.754 µM)	0.5 (≈ 1.51 µM)	–	–	Minimum inhibitory concentration (S. aureus USA300∆pbp4; strain USA300∆pbp4): 1 µg/mL (≈ 3.02 µM); Fold increase in resistance provided by PBP4 (S. aureus USA300): ~ 4 fold
C[C@H]1COc2c(N3CCN(C)CC3)c(F)cc3c(=O)c(C(=O)O)cn1c23 [LEV, levofloxacin]	0.5 (≈ 1.38 µM)	0.25 (≈ 0.692 µM)	1 (≈ 2.77 µM)	–	0.25 (≈ 0.692 µM)	0.5 (≈ 1.38 µM)	1 (≈ 2.77 µM)	–	–
C[C@@H](O)[C@H]1C(=O)N2C(C(=O)O)=C(S[C@@H]3CN[C@H](C(=O)N(C)C)C3)[C@H](C)[C@H]12 [MER, meropenem]	2 (≈ 5.22 µM)	1 (≈ 2.61 µM)	4 (≈ 10.4 µM)	4 (≈ 10.4 µM)	1 (≈ 2.61 µM)	64 (≈ 167 µM)	4 (≈ 10.4 µM)	–	Fold increase in resistance provided by PBP4 (S. aureus USA300): 2 fold
CN(C)c1ccc(O)c2c1C[C@H]1C[C@H]3[C@H](N(C)C)C(O)=C(C(N)=O)C(=O)[C@@]3(O)C(O)=C1C2=O [MIN, minocycline]	0.5 (≈ 1.09 µM)	0.5 (≈ 1.09 µM)	0.5 (≈ 1.09 µM)	–	0.5 (≈ 1.09 µM)	0.5 (≈ 1.09 µM)	0.5 (≈ 1.09 µM)	–	–
CC1(C)S[C@@H]2[C@H](NC(=O)[C@H](N)c3ccccc3)C(=O)N2[C@H]1C(=O)O [ampicillin]	–	–	–	–	–	–	–	reduced the protein’s ability to bind the fluorescent substrate	Effect of preincubation on BOCILLIN FL binding to PBP4 (fluorescence polarization) [2]: limited BOCILLIN FL binding; PBP4 BOCILLIN FL binding inhibition (gel-based) at low concentration (recombinant PBP4): did not reproducibly demonstrate BOCILLIN FL binding inhibition
CO[C@@]1(NC(=O)Cc2cccs2)C(=O)N2C(C(=O)O)=C(COC(N)=O)CS[C@@H]21 [cefoxitin]	–	–	–	–	–	–	–	reduced the protein’s ability to bind the fluorescent substrate	PBP4 BOCILLIN FL binding inhibition (gel-based) at low concentration (recombinant PBP4): did not reproducibly demonstrate BOCILLIN FL binding inhibition
NC[C@H]1O[C@H](O[C@H]2[C@H](O)[C@@H](O[C@H]3O[C@H](CO)[C@@H](O)[C@H](N)[C@H]3O)[C@H](N)C[C@@H]2N)[C@H](O)[C@@H](O)[C@@H]1O [kanamycin]	–	–	–	–	–	–	–	did not significantly impact	PBP4 BOCILLIN FL binding inhibition, dose response ([2]; 0, 3.125, 6.25, 12.5, 25, or 50 µM): no inhibitory effect; Effect of preincubation on BOCILLIN FL binding to PBP4 (fluorescence polarization) [2]: had no impact on BOCILLIN FL binding
colistin	–	–	–	128	–	–	–	–	Minimum inhibitory concentration (S. aureus CRB; strain CRB): 128 µg/mL
